Structures are written as SMILES. Like-named read-outs stand apart in the source and are kept apart here. Bounds are passed on as bounds.

Consider 28 compounds from patent publication US11512053B2, “Arginine methyltransferase inhibitors and uses thereof” (priority 2013, dated 2022).

Test [1] has as its target full-length human PRMT1 isoform 1 (GST-tagged) (Homo sapiens, UniProt Q99873). Kind of test: PRMT1 Biochemical Assay (3H-SAM Flashplate, peptide substrate). From the text: General Materials. S-adenosylmethionine (SAM), S-adenosylhomocysteine (SAH), bicine, Tween20, dimethylsulfoxide (DMSO), bovine skin gelatin (BSG), and Tris(2-carboxyethyl)phosphine hydrochloride solution (TCEP) were purchased from Sigma-Aldrich at the highest level of purity possible. ^3H-SAM was purchase from American Radiolabeled Chemicals with a specific activity of 80 Ci/mmol. 384-well streptavidin Flashplates were purchased from PerkinElmer.
Protein Expression. Recombinant baculovirus were generated according to Bac-to-Bac kit instructions (Life Technologies). […] Infections were carried out at 27° C. for 48 hours, harvested by centrifugation, and stored at −80° C. for purification.
Protein Purification. […] GST-tagged PRMT1 was eluted with 50 mM Tris, 2 mM glutathione, pH 7.8, dialysed in buffer A and concentrated to 1 mg/mL.
General Procedure for PRMT1 Enzyme Assays on Peptide Substrates. The assays were all performed in a buffer consisting of 20 mM Bicine (pH=7.6), 1 mM TCEP, 0.005% BSG, and 0.002% Tween 20, prepared on the day of use. […] DMSO (1 ul) was added to Columns 11, 12, 23, 24, rows A-H for the maximum signal control and 1 ul of SAH, a known product and inhibitor of PRMT1, was added to columns 11, 12, 23, 24, rows I-P for the minimum signal control. A cocktail (40 ul) containing the PRMT1 enzyme was added by Multidrop Combi (Thermo-Fisher). The compounds were allowed to incubate with PRMT1 for 30 min at room temperature, then a cocktail (10 ul) containing SAM and peptide was added to initiate the reaction (final volume=51 ul). […] The assays were stopped by the addition of non-radiolabeled SAM (10 ul) to a final concentration of 300 uM, which dilutes the ^3H-SAM to a level where its incorporation into the peptide substrate is no longer detectable. 50 ul of the reaction in the 384-well polypropylene plate was then transferred to a 384-well Flashplate and the biotinylated peptides were allowed to bind to the streptavidin surface for at least 1 hour before being washed once with 0.1% Tween20 in a Biotek ELx405 plate washer. The plates were then read in a PerkinElmer TopCount plate reader to measure the quantity of ^3H-labeled peptide bound to the Flashplate surface, measured as disintegrations per minute (dpm) or alternatively, referred to as counts per minute (cpm).
Where dpm=disintegrations per minute, cmpd=signal in assay well, and min and max are the respective minimum and maximum signal controls.
Where top and bottom are the normally allowed to float, but may be fixed at 100 or 0 respectively in a 3-parameter fit. The Hill Coefficient normally allowed to float but may also be fixed at 1 in a 3-parameter fit. Y is the % inhibition and X is the compound concentration.

In test [2] the target is full-length human PRMT8 isoform 1 (Homo sapiens, UniProt Q9NR22). As to the kind of experiment: PRMT8 Biochemical Assay (3H-SAM Flashplate, peptide substrate). The conditions noted are these: read-out: Biochemical IC50 PRMT8. From the text: General Materials. S-adenosylmethionine (SAM), S-adenosylhomocysteine (SAH), bicine, Tween20, dimethylsulfoxide (DMSO), bovine skin gelatin (BSG), isopropyl-β-D-thiogalactopyranoside (IPTG), and Tris(2-carboxyethyl)phosphine hydrochloride solution (TCEP) were purchased from Sigma-Aldrich at the highest level of purity possible. ^3H-SAM was purchase from American Radiolabeled Chemicals with a specific activity of 80 Ci/mmol. 384-well streptavidin Flashplates were purchased from PerkinElmer.
Chain of full-length human PRMT8 isoform 1 (Q9NR22 whole entry, the tested form may be a part, canonical isoform): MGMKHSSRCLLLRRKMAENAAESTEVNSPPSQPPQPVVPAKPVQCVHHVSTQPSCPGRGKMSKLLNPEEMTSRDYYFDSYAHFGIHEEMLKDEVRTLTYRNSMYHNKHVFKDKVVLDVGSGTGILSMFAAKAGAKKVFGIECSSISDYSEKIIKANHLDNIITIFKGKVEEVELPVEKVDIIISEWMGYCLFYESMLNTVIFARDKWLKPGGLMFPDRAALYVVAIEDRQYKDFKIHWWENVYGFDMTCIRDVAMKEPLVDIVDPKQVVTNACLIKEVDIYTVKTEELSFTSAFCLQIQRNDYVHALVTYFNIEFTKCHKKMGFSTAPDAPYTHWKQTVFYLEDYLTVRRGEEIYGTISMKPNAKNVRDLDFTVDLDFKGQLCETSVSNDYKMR
Substrates. Peptide representative of human histone H4 residues 31-45 was synthesized with an N-terminal linker-affinity tag motif and a C-terminal amide cap by 21st Century Biochemicals. The peptide was purified by high-performance liquid chromatography (HPLC) to greater than 95% purity and confirmed by liquid chromatography mass spectrometry (LC-MS). The sequence was Biot-Ahx-[…]-amide (SEQ ID NO.:8).
The resulting construct encodes an N-terminal GST tag and a thrombin cleavage sequence ([…] […] […] […] SPEF) (SEQ ID NO.:9) fused directly to Met 1 of PRMT8.
Protein Expression. E. coli (BL21(DE3) Gold, Stratagene) made competent by the CaCl2) method were transformed with the PRMT8 construct and ampicillin selection. Protein over-expression was accomplished by growing the PRMT8 expressing E. coli clone and inducing expression with 0.3 mM IPTG at 16° C. The culture was grown for 12 hours, harvested by centrifugation, and stored at −80° C. for purification.
Protein Purification. […] GST-tagged PRMT8 was eluted with 50 mM Tris, 2 mM glutathione, pH 7.8. Pooled fractions were cleaved by thrombin (10U) and dialysed in buffer A. GST was removed by reloading the cleaved protein sample onto glutathione sepharose column and PRMT8 was collected in the flow-through fractions. PRMT8 was purified further by ceramic hydroxyapatite chromatography. The column was washed with 50 mM phosphate buffer, 100 mM NaCl, 5% glycerol, 5 mM β-mercaptoethanol, pH 7.8 and PRMT8 was eluted by 100 mM phosphate in the same buffer. Protein was concentrated and buffer was exchanged to 50 mM Tris, 300 mM NaCl, 10% glycerol, 5 mM β-mercaptoethanol, pH 7.8 by ultrafiltration. The purity of recovered protein was 89%.
General Procedure for PRMT8 Enzyme Assays on Peptide Substrates. The assays were all performed in a buffer consisting of 20 mM Bicine (pH=7.6), 1 mM TCEP, 0.005% BSG, and 0.002% Tween 20, prepared on the day of use. Compounds in 100% DMSO (1 ul) were spotted into a polypropylene 384-well V-bottom plates (Greiner) using a Platemate Plus outfitted with a 384-channel head (Thermo Scientific). DMSO (1 ul) was added to Columns 11, 12, 23, 24, rows A-H for the maximum signal control and 1 ul of SAH, a known product and inhibitor of PRMT8, was added to columns 11, 12, 23, 24, rows I-P for the minimum signal control. A cocktail (40 ul) containing the PRMT8 enzyme was added by Multidrop Combi (Thermo-Fisher). The compounds were allowed to incubate with PRMT8 for 30 min at room temperature, then a cocktail (10 ul) containing ^3H-SAM and peptide was added to initiate the reaction (final volume=51 ul). The final concentrations of the components were as follows: PRMT8 was 1.5 nM, ^3H-SAM was 50 nM, non-radiolabeled SAM was 550 nM, peptide was 150 nM, SAH in the minimum signal control wells was 1 mM, and the DMSO concentration was 2%. The assays were stopped by the addition of non-radiolabeled SAM (10 ul) to a final concentration of 400 uM, which dilutes the ^3H-SAM to a level where its incorporation into the peptide substrate is no longer detectable. 50 ul of the reaction in the 384-well polypropylene plate was then transferred to a 384-well Flashplate and the biotinylated peptides were allowed to bind to the streptavidin surface for at least 1 hour before being washed once with 0.1% Tween20 in a Biotek ELx405 plate washer. […]

[3] abbreviates: single experiment or average of multiple experiments.

Chain of full-length human PRMT1 isoform 1 (GST-tagged) (Q99873 with tags, fused parts or gaps): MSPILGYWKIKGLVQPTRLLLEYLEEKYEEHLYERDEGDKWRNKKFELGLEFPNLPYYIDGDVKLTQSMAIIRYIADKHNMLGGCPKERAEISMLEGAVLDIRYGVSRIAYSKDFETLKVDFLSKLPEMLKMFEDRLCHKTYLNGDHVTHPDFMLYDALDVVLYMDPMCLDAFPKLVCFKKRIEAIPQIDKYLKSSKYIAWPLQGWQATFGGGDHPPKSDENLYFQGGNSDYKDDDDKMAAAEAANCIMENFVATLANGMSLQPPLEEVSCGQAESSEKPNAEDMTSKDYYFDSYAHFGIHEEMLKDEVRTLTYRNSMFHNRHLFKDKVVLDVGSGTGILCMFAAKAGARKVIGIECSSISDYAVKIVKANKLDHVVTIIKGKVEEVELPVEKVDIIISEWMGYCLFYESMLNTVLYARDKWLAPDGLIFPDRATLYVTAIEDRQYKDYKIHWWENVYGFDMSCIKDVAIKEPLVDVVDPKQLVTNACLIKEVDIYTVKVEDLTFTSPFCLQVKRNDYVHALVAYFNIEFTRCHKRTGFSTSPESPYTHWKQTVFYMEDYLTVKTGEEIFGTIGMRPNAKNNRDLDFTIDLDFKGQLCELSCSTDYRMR

By IC50 is commonly meant the midpoint of a concentration-inhibition curve. For `CNCCN(C)Cc1c[nH]nc1[C@H]1CC[C@H](O)C2(CCCCC2)C1` (racemic) [Compound 184, (1S,4S)-4-[4-({methyl[2-(methylamino)ethyl]amino}methyl)-1H-pyrazol-3-yl] spiro[5.5]undecan-1-ol], the half-inhibitory concentration (IC50) in test [1] is less than 0.1 µM; in test [1] (setting [3]), 0.0198 µM; in test [2], less than 0.1 µM; in test [2] (setting [3]), 0.0473 µM.
As to `CNCCN(C)Cc1c[nH]nc1[C@H]1CC[C@@H](O)C2(CCCCC2)C1` (single isomer, unassigned) [Compound 183], the IC50 in test [1] was less than 0.1 µM; in test [1] (setting [3]) it was 0.0135 µM; in test [2] it was less than 0.1 µM; in test [2] (setting [3]), 0.0394 µM.
On to `CN(CCN)Cc1c[nH]nc1CCc1ccccc1` [Compound 9], for which the concentration for half-maximal inhibition (IC50) in test [1] was less than 0.1 µM; in test [1] (setting [3]), 0.01 µM; in test [2] it was 0.101 to 1 µM; in test [2] (setting [3]) it was 0.76 µM.
For `CNCCN(C)Cc1c[nH]nc1[C@H]1CC[C@]2(CCC(C)(C)O2)CC1` [Compound 104] the same measures were less than 0.1 µM, 0.00804 µM, less than 0.1 µM and 0.0116 µM.
For the compound `CNCCN(C)Cc1c[nH]nc1[C@H]1CC[C@@]2(CCOC2(C)C)CC1` [Compound 106, Methyl [2-(methylamino)ethyl]([3-[(5R,8R)-1,1-dimethyl-2-oxaspiro[4.5]decan-8-yl]-1H-pyrazol-4-yl]methyl)amine], the IC50 in test [1] is less than 0.1 µM; in test [1] (setting [3]), 0.0095 µM; in test [2], less than 0.1 µM; in test [2] (setting [3]) it was 0.0145 µM.
In the case of `CNCCN(C)Cc1c[nH]nc1[C@H]1CC[C@@H](N(CC2CCOCC2)C(=O)CC(C)C)CC1` [Compound 107], the IC50 in test [1] was less than 0.1 µM; in test [1] (setting [3]) it was 0.0212 µM; in test [2], less than 0.1 µM; in test [2] (setting [3]) it was 0.0554 µM.
As for `CCC(=O)N(CC1CCOCC1)[C@H]1CC[C@@H](c2n[nH]cc2CN(C)CCNC)CC1` [Compound 108], the IC50 was less than 0.1 µM in test [1], 0.061 µM in test [1] (setting [3]), 0.101 to 1 µM in test [2] and 0.252 µM in test [2] (setting [3]).
Regarding `CNCCN(C)Cc1c[nH]nc1C1CCC2(CC1)CN(CC(C)C)C(=O)N2C` (stereo not shown) [Compound 145], the IC50 in test [1] was less than 0.1 µM; in test [1] (setting [3]), 0.0262 µM.
As for `CNCCN(C)Cc1c[nH]nc1C1CCC2(CC1)CC(=O)N(Cc1ccc(OC)cc1)C2` (stereo not shown) [Compound 146], the IC50 was less than 0.1 µM in test [1] and 0.014 µM in test [1] (setting [3]).
In the case of `CNCCN(C)Cc1c[nH]nc1C1CCC2(CC1)CNC(=O)C2` (stereo not shown) [Compound 147], the half-inhibitory concentration (IC50) is less than 0.1 µM in test [1] and 0.0183 µM in test [1] (setting [3]).
For `CC[C@H]1CC[C@H](c2n[nH]cc2CN(C)CCNC)CC1` [Compound 148] the same measures were less than 0.1 µM and 0.0048 µM.
The corresponding values for `CNCCN(C)Cc1c[nH]nc1C1CCC(C)CC1` (stereo not shown) [Compound 149] are less than 0.1 µM and 0.0045 µM.
The corresponding values for `CNCCN(C)Cc1c[nH]nc1C1CCC2(CC1)OCC(C(C)C)CO2` (stereo not shown) [Compound 150] are less than 0.1 µM and 0.044 µM.
`CNCCN(C)Cc1c[nH]nc1C1CCC2(CC1)CN(C)C(=O)N2CC(C)C` (stereo not shown) [Compound 151]: the IC50 was less than 0.1 µM in test [1] and 0.0369 µM in test [1] (setting [3]).
In the case of `CNCCN(C)Cc1c[nH]nc1C1CCC2(CC1)CCN(C)C2=O` (stereo not shown) [Compound 152], the concentration for half-maximal inhibition (IC50) in test [1] is less than 0.1 µM; in test [1] (setting [3]) it was 0.0142 µM.
For `CNCCN(C)Cc1c[nH]nc1C1CCC(OCC(C)C)CC1` (stereo not shown) [Compound 153] the same measures were less than 0.1 µM and 0.0232 µM.
Consider `CCN1CC2(CCC(c3n[nH]cc3CN(C)CCNC)CC2)N(C)C1=O` (stereo not shown) [Compound 154], for which the half-maximal inhibitory concentration (IC50) is less than 0.1 µM in test [1] and 0.0177 µM in test [1] (setting [3]).
For the compound `CNCCN(C)Cc1c[nH]nc1[C@H]1CC[C@]2(CC1)CC(=O)N(CC(C)C)C2` [Compound 155], the figures for the IC50 in test [1] and in test [1] (setting [3]) were less than 0.1 µM and 0.0315 µM, respectively.
Turning to `CNCCN(C)Cc1c[nH]nc1[C@H]1CC[C@@]2(CC1)CC(=O)N(CC(C)C)C2` [Compound 156], the IC50 was less than 0.1 µM in test [1] and 0.0172 µM in test [1] (setting [3]).
Turning to `CNCCN(C)Cc1c[nH]nc1C1CCC2(CC1)CC(=O)N(C)C2` (stereo not shown) [Compound 157], the IC50 in test [1] was less than 0.1 µM; in test [1] (setting [3]), 0.0185 µM.
For `CCOC1CC(OCC)CC2(CCC(c3n[nH]cc3CN(C)CCNC)CC2)C1` (stereo not shown) [Compound 159] the same measures were less than 0.1 µM and 0.0197 µM.
For `CNCCN(C)Cc1c[nH]nc1C1CCC2(CC1)OCCCO2` [Compound 160] the same measures were less than 0.1 µM and 0.0218 µM.
Consider `CNCCN(C)Cc1c[nH]nc1C1CCC2(CC1)C(=O)N(C)C(=O)N2C` (stereo not shown) [Compound 171], for which the figures for the IC50 in test [1] and in test [1] (setting [3]) were less than 0.1 µM and 0.0147 µM, respectively.
Take `CNCCN(C)Cc1c[nH]nc1C1CCC2(CC1)CN(C)C(=O)N2C` (stereo not shown) [Compound 172]: the concentration for half-maximal inhibition (IC50) in test [1] is less than 0.1 µM; in test [1] (setting [3]), 0.023 µM.
As to `CNCCN(C)Cc1c[nH]nc1C1=CCC(CCOC)(CCOC)CC1` [Compound 173], the IC50 in test [1] was less than 0.1 µM; in test [1] (setting [3]), 0.0232 µM.
In the case of `CNCCN(C)Cc1c[nH]nc1C1CCC(CCOC)(CCOC)CC1` [Compound 174], the IC50 in test [1] was less than 0.1 µM; in test [1] (setting [3]), 0.0155 µM.
Turning to `CNCCN(C)Cc1c[nH]nc1[C@H]1CC[C@H](C(C)C)CC1` [Compound 180], the figures for the 50% inhibitory concentration (IC50) in test [1] and in test [1] (setting [3]) were less than 0.1 µM and 0.0049 µM, respectively.
Turning to `CNCCN(C)Cc1c[nH]nc1[C@H]1CC[C@@H](C(C)C)CC1` [Compound 181], the figures for the concentration for half-maximal inhibition (IC50) in test [1] and in test [1] (setting [3]) were less than 0.1 µM and 0.0047 µM, respectively.
